TGI data for eleven compounds are collected here from PubChem BioAssay (NCI).

Common to all, as to test: NCI tumour cell line growth inhibition, 48 h
The test system of assay [1] is MDA-MB-435.
Assay [2] relates to OVCAR-4 ovarian.
Assay [3] deals with NCI-H522 lung.
For assay [4], the system named is SK-OV-3 ovarian.
Assay [5] concerns NCI-H460 lung.
Assay [6] relates to SNB-19 CNS.
The test system of assay [7] is SF-268 CNS.
Assay [8] concerns SK-MEL-2 melanoma.
Assay [9] relates to CCRF-CEM leukemia.
For assay [10], the system named is 786-0 renal.

The structures appear in SMILES notation.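 Five compound concentrations were applied to cells in 96-well plates for 48 hours; endpoints were derived by simple linear interpolation of the resulting dose-response curve. At the TGI there is no net growth.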

For `C=CCOC(=O)c1c(C)n([O-])c2cc(Cl)c(Cl)cc2[n+]1=O`, the TGI in assay [1] was 41.2 µM; in [2], 19.1 µM; in assay [3], 28.1 µM; in assay [4] it was 59.8 µM; in assay [5] it was 42.3 µM; in assay [6] it was more than 100 µM. For the same compound, the TGI in [7] was determined as 29.5 µM; in assay [8] it was 39.4 µM; in assay [9], 45.9 µM; in assay [10] it was 60.1 µM.

`N#CCCN(CCC#N)c1ccc(/C=C2\SC(=S)NC2=O)cc1`: the TGI in [1], in assay [2], in [3], in assay [4], in assay [5] and in assay [6] was more than 100 µM each time. Besides, the TGI in [7], in [8], in assay [9] and in [10] was more than 100 µM each time.

Regarding `NC(=S)Nc1ccc2c(c1)oc1ccccc12`, the TGI in assay [1], in assay [2], in assay [3], in assay [4], in assay [5] and in [6] was more than 100 µM throughout. The TGI in assay [7], in assay [8], in assay [9] and in [10] was more than 100 µM each time.

As to `O=C1C(C(c2ccc([N+](=O)[O-])cc2)N2CCOCC2)=C(O)C(c2ccccc2)N1c1ccccc1` (stereo not given), the TGI in [1], in [2], in [3], in assay [4], in assay [5] and in [6] was more than 10 µM in each case. The TGI in assay [7], in assay [8], in assay [9] and in assay [10] was more than 10 µM each time.

As to `C/C(=N/NC(=S)Nc1cccc(Cl)c1)c1ccccn1`, the TGI was 15.4 µM in assay [1]; 16.9 µM in [2]; 2.41 µM in assay [3]; 10.4 µM in [4]; 5.46 µM in assay [5]; 16.9 µM in assay [6]. In addition, the TGI in [7] is 12.5 µM; in assay [8], 8.92 µM; in assay [9], more than 15.9 µM; in assay [10], 12.9 µM.

In the case of `Nc1ncnc2c1ncn2C1OC(CO)C(O)C1NS(=O)(=O)c1ccccc1` (stereo not given), the TGI in assay [1], in assay [2], in [3], in assay [4], in [5] and in [6] was more than 100 µM throughout. The TGI in assay [7], in [8], in assay [9] and in assay [10] was more than 100 µM in each case.

`O=C(NNS(=O)(=O)c1ccc(Br)cc1)c1ccc(Cl)cc1NC(=O)C12CC3CC(CC(C3)C1)C2`: the TGI in assay [1] is 25.8 µM; in [2] it was 23.8 µM; in assay [3], 25.1 µM; in assay [4] it was 30.3 µM; in [5], 23.4 µM; in assay [6] it was 28.7 µM. Further, the TGI in assay [7] worked out at 24.9 µM; in [8] it was 25.3 µM; in [9] it was 76.5 µM; in assay [10], 40 µM.

With `N#C/C(=C/n1c(=S)[nH]c2ccccc21)C(N)=O`, the TGI in [1], in assay [2], in assay [3], in [4], in [5] and in assay [6] was more than 100 µM throughout. Moreover, the TGI in assay [7], in assay [8], in assay [9] and in [10] was more than 100 µM each time.

Regarding `c1ccc(C(c2cccc3c2ccc2ccccc23)C(c2ccccc2)c2cccc3c2ccc2ccccc23)cc1` (stereo not given), the TGI in assay [1], in [2], in assay [3], in [4], in assay [5] and in assay [6] was more than 100 µM each time. For the same compound, the TGI in [7], in assay [8], in [9] and in assay [10] was more than 100 µM each time.

Take `O=C(N/N=C\c1cccs1)c1ccncc1`: the TGI in assay [1], in assay [2], in assay [3], in assay [4], in assay [5] and in assay [6] was more than 100 µM throughout. Besides, the TGI in assay [7], in assay [8], in assay [9] and in assay [10] was more than 100 µM each time.

`O=S(c1ccccc1)C1CC2CC3(CCC21O)OCCO3` (stereo not given): the TGI in assay [1], in assay [2], in [3], in assay [4], in assay [5] and in [6] was more than 100 µM throughout. Besides, the TGI in assay [7], in [8], in assay [9] and in assay [10] was more than 100 µM each time.
